Experimental data reported in patent US20230107642A1 (Erasca, Inc., priority 2020, published 2023).

These molecules were tested against T1, Cys12 of the KRAS 4B G12C protein (Homo sapiens, UniProt P01116, G12C) (assay: In vitro covalent adduct formation (CAF) assay, LC-MS intact mass). Details: 10 uM compound, 60 min.
T1 construct: This protein contained 188 amino acids in total, including an N-terminal 6-Histidine tag; made in house; host or cells: E. coli BL21
Type: binding
Method: This Example provides a protocol for assessing covalent adduct formation (CAF) between the compounds of the present application and KRAS.
In vitro covalent adduct formation assay: Covalent adduct formation (CAF) reactions between Cys12 of the KRAS 4B G12C protein and some of the compounds of Tables 1 to 4 were measured in vitro using liquid chromatography-mass spectrometry (LC-MS).
Recombinant Human KRAS 4B protein containing the G12C mutation was used in compound screening experiments. This protein contained 188 amino acids in total, including an N-terminal 6-Histidine tag, followed by a Tobacco Etch Virus (TEV) tag, followed by residues 1-169 of the native KRAS 4B sequence. The exact mass of the protein was 21,310 Da as determined by mass spectrometry. The full amino acid sequence is shown below: […]
The recombinant protein was expressed in E. coli BL21 cells and purified using affinity chromatography via a Ni-NTA column. Protein stocks were nucleotide-exchanged to >95% GDP, concentrated to 4 mg/mL, and stored at −80° C. in storage buffer (50 mM HEPES pH 7.4, 50 mM NaCl, 5 mM MgCl2, 1 mM DTT). Pure KRAS 4B G12C protein was diluted to a concentration of 5 μM in Tris Buffered Saline, pH 7.4. The compounds were dissolved in DMSO and added to the diluted protein to make a 10 μM concentration. The total DMSO concentration in the reaction was 4%. The reaction was mixed by pipetting and incubated at 22° C. for one hour. Aliquots of the reaction were taken over time and diluted 2:1 in 0.1% formic acid. The intact mass of the protein samples was measured by LC-MS using a QExactive+ mass spectrometer (Thermo Scientific). An amount of 500 ng total protein was injected onto a C8 reverse phase column, eluted with a seven-minute gradient of 30%-90% acetonitrile/0.1% formic acid, and analyzed for intact mass by the mass spectrometer. Adducts identified were confirmed to be within 1 Dalton of the expected mass, and the relative ratios of free:adduct protein were used to quantify the percentage of protein bound by the compound. CAF reactions were run in duplicate, with a typical variability of ±5%.
With `C=CC(=O)N1C[C@H](C)N(c2nc(=O)n3c4c(c(-c5ccc(F)cc5F)c(C(F)(F)F)cc24)SC[C@@H]3CN2CCC3(CC2)COC3)C[C@H]1C` (atropisomer, axis not shown) [Example 1315, (3S,10R)-3-((2-oxa-7-azaspiro[3.5]nonan-7-yl)methyl)-7-((2S,5R)-4-acryloyl-2,5-dimethylpiperazin-1-yl)-10-(2,4-difluorophenyl)-9-(trifluoromethyl)-2,3-dihydro-5H-[1,4]thiazino[2,3,4-ij]quinazolin-5-one] the “% CAF 10 uM @ 60 min” value was 96.3%. With `C=CC(=O)N1CCN(c2nc(=O)n3c4c(c(-c5ccc(F)cc5F)c(C(F)(F)F)cc24)SC[C@@H]3CN2CCN(CC)CC2)CC1` (atropisomer, axis not shown) [Example 1317, (3S,10S)-7-(4-acryloylpiperazin-1-yl)-10-(2,4-difluorophenyl)-3-((4-ethylpiperazin-1-yl)methyl)-9-(trifluoromethyl)-2,3-dihydro-5H-[1,4]thiazino[2,3,4-ij]quinazolin-5-one] the “% CAF 10 uM @ 60 min” value was 98.3%. In the case of `C=CC(=O)N1CCN(c2nc(=O)n3c4c(c(-c5ccc(F)cc5F)c(C(F)(F)F)cc24)SC[C@@H]3CN2CCN(CC)CC2)CC1` (atropisomer, axis not shown) [Example 1318, (3S,10R)-7-(4-acryloylpiperazin-1-yl)-10-(2,4-difluorophenyl)-3-((4-ethylpiperazin-1-yl)methyl)-9-(trifluoromethyl)-2,3-dihydro-5H-[1,4]thiazino[2,3,4-ij]quinazolin-5-one], the “% CAF 10 uM @ 60 min” value is reported as 99.6%. In the case of `C=CC(=O)N1[C@H](C)CN(c2nc(=O)n3c4c(c(-c5ccc(F)cc5F)c(C(F)(F)F)cc24)SC[C@@H]3COCOC)C[C@@H]1C` (atropisomer, axis not shown) [Example 1319, (3S,10S)-7-((3S,5R)-4-acryloyl-3,5-dimethylpiperazin-1-yl)-10-(2,4-difluorophenyl)-3-((methoxymethoxy)methyl)-9-(trifluoromethyl)-2,3-dihydro-5H-[1,4]thiazino[2,3,4-ij]quinazolin-5-one], the “% CAF 10 uM @ 60 min” value is reported as 96.3%. For `C=CC(=O)N1[C@H](C)CN(c2nc(=O)n3c4c(c(-c5ccc(F)cc5F)c(C(F)(F)F)cc24)SC[C@@H]3COCOC)C[C@@H]1C` (atropisomer, axis not shown) [Example 1320, (3S,10R)-7-((3S,5R)-4-acryloyl-3,5-dimethylpiperazin-1-yl)-10-(2,4-difluorophenyl)-3-((methoxymethoxy)methyl)-9-(trifluoromethyl)-2,3-dihydro-5H-[1,4]thiazino[2,3,4-ij]quinazolin-5-one], the “% CAF 10 uM @ 60 min” value was 97.4%. With `C=CC(=O)N1C[C@H](C)N(c2nc(=O)n3c4c(c(-c5ccc(F)cc5F)c(C(F)(F)F)cc24)SC[C@@H]3CN2C[C@@H]3C[C@H]2CO3)C[C@H]1C` (atropisomer, axis not shown) [Example 1322, (3S,10S)-3-(((1S,4S)-2-oxa-5-azabicyclo[2.2.1]heptan-5-yl)methyl)-7-((2S,5R)-4-acryloyl-2,5-dimethylpiperazin-1-yl)-10-(2,4-difluorophenyl)-9-(trifluoromethyl)-2,3-dihydro-5H-[1,4]thiazino[2,3,4-ij]quinazolin-5-one] the “% CAF 10 uM @ 60 min” value was 96.2%. With `C=CC(=O)N1C[C@H](C)N(c2nc(=O)n3c4c(c(-c5ccc(F)cc5F)c(C(F)(F)F)cc24)SC[C@@H]3CN2C[C@@H]3C[C@H]2CO3)C[C@H]1C` (atropisomer, axis not shown) [Example 1323, (3S,10R)-3-(((1S,4S)-2-oxa-5-azabicyclo[2.2.1]heptan-5-yl)methyl)-7-((2S,5R)-4-acryloyl-2,5-dimethylpiperazin-1-yl)-10-(2,4-difluorophenyl)-9-(trifluoromethyl)-2,3-dihydro-5H-[1,4]thiazino[2,3,4-ij]quinazolin-5-one] the “% CAF 10 uM @ 60 min” value was 96.1%. For `C=CC(=O)N1[C@H](C)CN(c2nc(=O)n3c4c(c(-c5ccc(F)cc5F)c(C(F)(F)F)cc24)SC[C@@H]3CN(C)C)C[C@@H]1C` (atropisomer, axis not shown) [Example 1324, (3S,10R)-7-((3S,5R)-4-acryloyl-3,5-dimethylpiperazin-1-yl)-10-(2,4-difluorophenyl)-3-((dimethylamino)methyl)-9-(trifluoromethyl)-2,3-dihydro-5H-[1,4]thiazino[2,3,4-ij]quinazolin-5-one], the “% CAF 10 uM @ 60 min” value was 82.2%. In the case of `C=CC(=O)N1[C@H](C)CN(c2nc(=O)n3c4c(c(-c5ccc(F)cc5F)c(C(F)(F)F)cc24)SC[C@@H]3CN(C)C)C[C@@H]1C` (atropisomer, axis not shown) [Example 1325, (3S,10S)-7-((3S,5R)-4-acryloyl-3,5-dimethylpiperazin-1-yl)-10-(2,4-difluorophenyl)-3-((dimethylamino)methyl)-9-(trifluoromethyl)-2,3-dihydro-5H-[1,4]thiazino[2,3,4-ij]quinazolin-5-one], the “% CAF 10 uM @ 60 min” value is reported as 81.4%. `C=CC(=O)N1C[C@H](C)N(c2nc(=O)n3c4c(c(-c5ccc(F)cc5F)c(C(F)(F)F)cc24)SC[C@@H]3COCOC)C[C@H]1C` (atropisomer, axis not shown) [Example 1326, (3S,10S)-7-((2S,5R)-4-acryloyl-3,5-dimethylpiperazin-1-yl)-10-(2,4-difluorophenyl)-3-((methoxymethoxy)methyl)-9-(trifluoromethyl)-2,3-dihydro-5H-[1,4]thiazino[2,3,4-ij]quinazolin-5-one] was tested, and the “% CAF 10 uM @ 60 min” value was 82.3%. In the case of `C=CC(=O)N1C[C@H](C)N(c2nc(=O)n3c4c(c(-c5ccc(F)cc5F)c(C(F)(F)F)cc24)SC[C@@H]3COCOC)C[C@H]1C` (atropisomer, axis not shown) [Example 1327, (3S,10R)-7-((2S,5R)-4-acryloyl-3,5-dimethylpiperazin-1-yl)-10-(2,4-difluorophenyl)-3-((methoxymethoxy)methyl)-9-(trifluoromethyl)-2,3-dihydro-5H-[1,4]thiazino[2,3,4-ij]quinazolin-5-one], the “% CAF 10 uM @ 60 min” value is reported as 86.3%. In the case of `C=CC(=O)N1[C@H](C)CN(c2nc(=O)n3c4c(c(-c5ccc(F)cc5F)c(C(F)(F)F)cc24)SC[C@@H]3CN2CCN(CC)CC2)C[C@@H]1C` (atropisomer, axis not shown) [Example 1329, (3S,10R)-7-((3S,5R)-4-acryloyl-3,5-dimethylpiperazin-1-yl)-10-(2,4-difluorophenyl)-3-((4-ethylpiperazin-1-yl)methyl)-9-(trifluoromethyl)-2,3-dihydro-5H-[1,4]thiazino[2,3,4-ij]quinazolin-5-one], the “% CAF 10 uM @ 60 min” value is reported as 95.4%. For `C=CC(=O)N1[C@H](C)CN(c2nc(=O)n3c4c(c(-c5ccc(F)cc5F)c(C(F)(F)F)cc24)SC[C@@H]3CN2CCN(CC)CC2)C[C@@H]1C` (atropisomer, axis not shown) [Example 1330, (3S,10S)-7-((3S,5R)-4-acryloyl-3,5-dimethylpiperazin-1-yl)-10-(2,4-difluorophenyl)-3-((4-ethylpiperazin-1-yl)methyl)-9-(trifluoromethyl)-2,3-dihydro-5H-[1,4]thiazino[2,3,4-ij]quinazolin-5-one], the “% CAF 10 uM @ 60 min” value was 85%. With `C=CC(=O)N1[C@H](C)CN(c2nc(=O)n3c4c(c(-c5cc(Cl)c(F)cc5F)c(C(F)(F)F)cc24)SC[C@@H]3CN2C[C@@H]3C[C@H]2CO3)C[C@@H]1C` (atropisomer, axis not shown) [Example 1331, (3S,10R)-3-(((1S,4S)-2-oxa-5-azabicyclo[2.2.1]heptan-5-yl)methyl)-7-((3S,5R)-4-acryloyl-3,5-dimethylpiperazin-1-yl)-10-(5-chloro-2,4-difluorophenyl)-9-(trifluoromethyl)-2,3-dihydro-5H-[1,4]thiazino[2,3,4-ij]quinazolin-5-one] the “% CAF 10 uM @ 60 min” value was 94.5%. `C=CC(=O)N1[C@H](C)CN(c2nc(=O)n3c4c(c(-c5cc(Cl)c(F)cc5F)c(C(F)(F)F)cc24)SC[C@@H]3CN2C[C@@H]3C[C@H]2CO3)C[C@@H]1C` (atropisomer, axis not shown) [Example 1332, (3S,10S)-3-(((1S,4S)-2-oxa-5-azabicyclo[2.2.1]heptan-5-yl)methyl)-7-((3S,5R)-4-acryloyl-3,5-dimethylpiperazin-1-yl)-10-(5-chloro-2,4-difluorophenyl)-9-(trifluoromethyl)-2,3-dihydro-5H-[1,4]thiazino[2,3,4-ij]quinazolin-5-one] was tested, and the “% CAF 10 uM @ 60 min” value was 87%. `C=CC(=O)N1C[C@H](C)N(c2nc(=O)n3c4c(c(-c5cc(Cl)c(F)cc5F)c(C(F)(F)F)cc24)SC[C@@H]3CN2C[C@@H]3C[C@H]2CO3)C[C@H]1C` (atropisomer, axis not shown) [Example 1334, (3S,10R)-3-(((1S,4S)-2-oxa-5-azabicyclo[2.2.1]heptan-5-yl)methyl)-7-((2S,5R)-4-acryloyl-2,5-dimethylpiperazin-1-yl)-10-(5-chloro-2,4-difluorophenyl)-9-(trifluoromethyl)-2,3-dihydro-5H-[1,4]thiazino[2,3,4-ij]quinazolin-5-one] was tested, and the “% CAF 10 uM @ 60 min” value was 80%.
